This assay deals with T1, human P2X4 (Homo sapiens, UniProt Q99571).
T1 sequence (Q99571 1-388): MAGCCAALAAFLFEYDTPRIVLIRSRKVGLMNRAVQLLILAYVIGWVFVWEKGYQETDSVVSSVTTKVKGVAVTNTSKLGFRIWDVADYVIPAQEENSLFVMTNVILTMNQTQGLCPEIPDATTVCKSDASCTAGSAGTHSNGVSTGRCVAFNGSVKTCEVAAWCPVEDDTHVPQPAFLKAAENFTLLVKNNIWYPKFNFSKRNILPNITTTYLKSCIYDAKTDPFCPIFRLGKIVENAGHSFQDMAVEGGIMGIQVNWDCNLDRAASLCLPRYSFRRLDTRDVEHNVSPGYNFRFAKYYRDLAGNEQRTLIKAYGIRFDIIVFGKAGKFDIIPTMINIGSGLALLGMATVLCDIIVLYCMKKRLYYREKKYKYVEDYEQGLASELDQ
Description: Human P2X4 HEK Cell FLIPR Assay. The assay is classed as cell-based. As to conditions: agonist Bz-ATP at EC80; for Emax: HEK293, HEK293 cells, percentage of maximal inhibition, read-out: Human P2X4 HEK Cells (FLIPR Assay) avg Efficacy [%]; for IC50: HEK293 cells, individual values listed where some fall outside detection range. The gist of the method: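 HEK293 cells stably expressing human P2X4, Fluo8-AM loaded 30 min at 37° C, then compound 30 min at room temperature (0.5% DMSO, pH 7.4 buffer with 1.8 mM CaCl2). Bz-ATP at its daily-determined EC80 added; calcium fluorescence read over 120 sec; IC50 from peak RFU normalized to agonist control, triplicates.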

A word on the IC50: it is the concentration that gives 50% inhibition. As to `N#Cc1cnn(-c2ccc(NC(=O)Cc3ccccc3OC(F)(F)F)cc2S(N)(=O)=O)c1` [Example 204, N-[4-(4-Cyano-1H-pyrazol-1-yl)-3-sulfamoylphenyl]-2-[2-(trifluoromethoxy)phenyl]-acetamide], the Emax turned out to be 86% and the IC50 stood at 72 nM.

For `N#Cc1cnn(-c2ccc(NC(=O)Cc3cc(F)c(F)cc3Cl)cc2S(N)(=O)=O)c1` [Example 205, 2-(2-Chloro-4,5-difluorophenyl)-N-[4-(4-cyano-1H-pyrazol-1-yl)-3-sulfamoylphenyl]-acetamide], the Emax was determined as 89% and the IC50 was found to be 73 nM.

Regarding `N#Cc1cnn(-c2ccc(NC(=O)Cc3cccc(C(F)(F)F)c3Cl)cc2S(N)(=O)=O)c1` [Example 206, 2-[2-Chloro-3-(trifluoromethyl)phenyl]-N-[4-(4-cyano-1H-pyrazol-1-yl)-3-sulfamoylphenyl]acetamide], the Emax stood at 98% and the IC50 came out at 29 nM.

For `Cc1ccc(F)c(CC(=O)Nc2ccc(-n3cc(C#N)cn3)c(S(N)(=O)=O)c2)c1Cl` [Example 207, 2-(2-Chloro-6-fluoro-3-methylphenyl)-N-[4-(4-cyano-1H-pyrazol-1-yl)-3-sulfamoylphenyl]acetamide], the Emax amounted to 98% and the IC50 came to 12 nM.

With `N#Cc1cnn(-c2ccc(NC(=O)Cc3c(F)ccc(F)c3Cl)cc2S(N)(=O)=O)c1` [Example 208, 2-(2-Chloro-3,6-difluorophenyl)-N-[4-(4-cyano-1H-pyrazol-1-yl)-3-sulfamoylphenyl]-acetamide], the Emax came out at 91% and the IC50 is 33 nM.

`Cc1ccc(Cl)c(CC(=O)Nc2ccc(-n3cc(C#N)cn3)c(S(N)(=O)=O)c2)c1` [Example 209, 2-(2-Chloro-5-methylphenyl)-N-[4-(4-cyano-1H-pyrazol-1-yl)-3-sulfamoylphenyl]-acetamide]: the Emax is 91% and the IC50 worked out at 37 nM.

As for `COc1ccc(CC(=O)Nc2ccc(-n3cc(C#N)cn3)c(S(N)(=O)=O)c2)c(Cl)c1` [Example 210, 2-(2-Chloro-4-methoxyphenyl)-N-[4-(4-cyano-1H-pyrazol-1-yl)-3-sulfamoylphenyl]-acetamide], the Emax is 76% and the IC50 came out at 116 nM.

`N#Cc1cnn(-c2ccc(NC(=O)Cc3cc(Cl)ccc3Cl)cc2S(N)(=O)=O)c1` [Example 211, N-[4-(4-Cyano-1H-pyrazol-1-yl)-3-sulfamoylphenyl]-2-(2,5-dichlorophenyl)acetamide]: the Emax came to 94% and the IC50 turned out to be 75 nM.

Take `COc1ccc(Cl)cc1CC(=O)Nc1ccc(-n2cc(C#N)cn2)c(S(N)(=O)=O)c1` [Example 212, 2-(5-Chloro-2-methoxyphenyl)-N-[4-(4-cyano-1H-pyrazol-1-yl)-3-sulfamoylphenyl]-acetamide]: the Emax was determined as 86% and the IC50 was 149 nM.

For `CC(C)c1ccccc1CC(=O)Nc1ccc(-n2cc(C#N)cn2)c(S(N)(=O)=O)c1` [Example 213, N-[4-(4-Cyano-1H-pyrazol-1-yl)-3-sulfamoylphenyl]-2-[2-(propan-2-yl)phenyl]-acetamide], the Emax came out at 93% and the concentration for half-maximal inhibition (IC50) came out at 47 nM.

With `N#Cc1cnn(-c2ccc(NC(=O)Cc3cc(F)ccc3Cl)cc2S(N)(=O)=O)c1` [Example 214, 2-(2-Chloro-5-fluorophenyl)-N-[4-(4-cyano-1H-pyrazol-1-yl)-3-sulfamoylphenyl]-acetamide], the Emax worked out at 86% and the IC50 is 36 nM.

As to `N#Cc1cnn(-c2ccc(NC(=O)Cc3c(Cl)cccc3C(F)(F)F)cc2S(N)(=O)=O)c1` [Example 215, 2-[2-Chloro-6-(trifluoromethyl)phenyl]-N-[4-(4-cyano-1H-pyrazol-1-yl)-3-sulfamoylphenyl]acetamide], the Emax was determined as 95% and the IC50 came to 38 nM.

Take `COc1cccc(Cl)c1CC(=O)Nc1ccc(-n2cc(C#N)cn2)c(S(N)(=O)=O)c1` [Example 216, 2-(2-Chloro-6-methoxyphenyl)-N-[4-(4-cyano-1H-pyrazol-1-yl)-3-sulfamoyl-phenyl]acetamide]: the Emax was 101% and the IC50 worked out at 96 nM.

Turning to `N#Cc1cnn(-c2ccc(NC(=O)Cc3c(F)cc(F)cc3Cl)cc2S(N)(=O)=O)c1` [Example 217, 2-(2-Chloro-4,6-difluorophenyl)-N-[4-(4-cyano-1H-pyrazol-1-yl)-3-sulfamoyl-phenyl]acetamide], the Emax was determined as 84% and the IC50 came to 51 nM.

Consider `N#Cc1cnn(-c2ccc(NC(=O)Cc3ccncc3Cl)cc2S(N)(=O)=O)c1` [Example 218, 2-(3-Chloropyridin-4-yl)-N-[4-(4-cyano-1H-pyrazol*1-yl)-3-sulfamoyl-phenyl]acetamide], for which the Emax was 92% and the half-maximal inhibitory concentration (IC50) was 957 nM.

Regarding `N#Cc1cnn(-c2ccc(NC(=O)Cc3ccc(C(F)F)cc3)cc2S(N)(=O)=O)c1` [Example 219, N-[4-(4-Cyano-1H-pyrazol-1-yl)-3-sulfamoylphenyl]-2-[4-(difluoromethyl)-phenyl]acetamide], the Emax is 65% and the IC50 was found to be 250 nM.

As for `N#Cc1cnn(-c2ccc(NC(=O)C(F)(F)c3ccccc3Cl)cc2S(N)(=O)=O)c1` [Example 220, 2-(2-Chlorophenyl)-N-[4-(4-cyano-1H-pyrazol-1-yl)-3-sulfamoylphenyl]-2,2-difluoroacetamide], the Emax worked out at 108% and the IC50 is 276 nM.

On to `NS(=O)(=O)c1cc(NC(=O)Cc2ccccc2F)ccc1-c1cncc(C(F)(F)F)c1` [Example 221, 2-(2-Fluorophenyl)-N-{3-sulfamoyl-4-[5-(trifluoromethyl)pyridin-3-yl]phenyl}-acetamide], for which the Emax worked out at 63% and the IC50 worked out at 40 nM.

Turning to `NS(=O)(=O)c1cc(NC(=O)Cc2ccccc2OC(F)(F)F)ccc1-c1cncc(C(F)(F)F)c1` [Example 222, N-{3-Sulfamoyl-4-[5-(trifluoromethyl)pyridin-3-yl]phenyl}-2-[2-(trifluoromethoxy)-phenyl]acetamide], the Emax turned out to be 83% and the IC50 turned out to be 92 nM.

As to `Cc1ccccc1CC(=O)Nc1ccc(-c2cnn(C(F)F)c2)c(S(N)(=O)=O)c1` [Example 223, N-{4-[1-(Difluoromethyl)-1H-pyrazol-4-yl]-3-sulfamoylphenyl}-2-(2-methylphenyl)-acetamide], the Emax was 87% and the IC50 was found to be 26 nM.

In the case of `NS(=O)(=O)c1cc(NC(=O)Cc2ccccc2C(F)(F)F)ccc1-c1cnn(C(F)F)c1` [Example 224, N-{4-[1-(Difluoromethyl)-1H-pyrazol-4-yl]-3-sulfamoylphenyl}-2-[2-(trifluoromethyl)-phenyl]acetamide], the Emax came to 94% and the IC50 came out at 28 nM.

For `NS(=O)(=O)c1cc(NC(=O)Cc2ccccc2C(F)F)ccc1-c1cnn(C(F)F)c1` [Example 225, 2-[2-(Difluoromethyl)phenyl]-N-{4-[1-(difluoromethyl)-1H-pyrazol-4-yl]-3-sulfamoyl-phenyl}acetamide], the Emax is 91% and the IC50 turned out to be 70 nM.

`COc1ccccc1CC(=O)Nc1ccc(-c2cnn(C(F)F)c2)c(S(N)(=O)=O)c1` [Example 226, N-{4-[1-(Difluoromethyl)-1H-pyrazol-4-yl]-3-sulfamoylphenyl}-2-(2-methoxyphenyl)-acetamide]: the Emax came to 104% and the IC50 was determined as 111 nM.

As to `NS(=O)(=O)c1cc(NC(=O)Cc2ccc(F)cc2)ccc1-c1cnn(C(F)F)c1` [Example 227, N-{4-[1-(Difluoromethyl)-1H-pyrazol-4-yl]-3-sulfamoylphenyl}-2-(4-fluorophenyl)-acetamide], the Emax stood at 95% and the IC50 was 404 nM.

With `NS(=O)(=O)c1cc(NC(=O)Cc2cc(F)ccc2Cl)ccc1-c1cnn(C(F)F)c1` [Example 228, 2-(2-Chloro-5-fluorophenyl)-N-{4-[1-(difluoromethyl)-1H-pyrazol-4-yl]-3-sulfamoyl-phenyl}acetamide], the Emax stood at 92% and the IC50 was 37 nM.

Regarding `NS(=O)(=O)c1cc(NC(=O)Cc2cccc(Cl)c2Cl)ccc1-c1cnn(C(F)F)c1` [Example 229, 2-(2,3-Dichlorophenyl)-N-{4-[1-(difluoromethyl)-1H-pyrazol-4-yl]-3-sulfamoylphenyl}-acetamide], the Emax worked out at 94% and the IC50 was found to be 16 nM.

For `NS(=O)(=O)c1cc(NC(=O)Cc2ccncc2Cl)ccc1-c1cnn(C(F)F)c1` [Example 230, 2-(3-Chloropyridin-4-yl)-N-{4-[1-(difluoromethyl)-1H-pyrazol-4-yl]-3-sulfamoyl-phenyl}acetamide], the Emax came out at 90% and the IC50 was 351 nM.

Turning to `NS(=O)(=O)c1cc(NC(=O)Cc2ccccc2Cl)ccc1-n1cnc(C2CCC2)n1` [Example 231, 2-(2-Chlorophenyl)-N-[4-(3-cyclobutyl-1H-1,2,4-triazol-1-yl)-3-sulfamoylphenyl]-acetamide], the Emax came out at 81% and the IC50 came out at 51 nM.

In the case of `CC(=O)c1cnn(-c2ccc(NC(=O)Cc3ccccc3Cl)cc2S(N)(=O)=O)c1` [Example 232, N-[4-(4-Acetyl-1H-pyrazol-1-yl)-3-sulfamoylphenyl]-2-(2-chlorophenyl)acetamide], the Emax is 89% and the IC50 was 81 nM.

For the origin of these results see patent US11524938B2, “Aromatic sulfonamide derivatives” (Bayer Pharma Aktiengesellschaft, priority 2016, dated 2022).
